Results on 47 compounds are retold here after ChEMBL document CHEMBL5442379, “ASAP - SARS-CoV-2 nsp3 macrodomain single point” (2024).

Each structure is given as a SMILES string.

The test deals with Replicase polyprotein 1ab (Severe acute respiratory syndrome coronavirus 2) (UniProt P0DTD1).

Description: Functional biochemical assay to identify treatments for viral infectious disease that targets SARS-COV-2 nsp3 macrodomain, whereby the mechanism of action displaces an ADP-Ribose modified peptide from the binding site. Utilizing a time-resolved fluorescence method to measure binding by reading the emitted fluorescence intensity in two wavelengths.

With `COCc1nc(CNc2c(C#N)c(C)nn2C)cs1`, the inhibition (Concentration 50.0 uM, Number of replicates 2.0, Standard deviation 4.858 %) worked out at 0.8%.

Take `CC[C@@H]1C[C@@H](C(=O)Nc2ncnc3[nH]c(C)c(C)c23)CCO1`: the inhibition (Concentration 50.0 uM, Number of replicates 2.0, Standard deviation 1.684 %) was determined as 12.1%.

With `C[C@]1(C(=O)O)CCCN1C(=O)c1ncnc2[nH]ccc12`, the inhibition runs as follows: (Concentration 50.0 uM, Number of replicates 2.0, Standard deviation 5.501 %) -5.29%; (Concentration 100.0 uM, Number of replicates 2.0, Standard deviation 0.477 %) 5.67%.

For `O=C(c1ccccc1)N1CCC(c2ccn3ncc(C(=O)N4CCn5ncnc5C4)c3c2)CC1`, the inhibition by setting is: (Concentration 49.75 uM, Number of replicates 2.0, Standard deviation 0.529 %) -3.77%; (Concentration 99.5 uM, Number of replicates 2.0, Standard deviation 3.194 %) -3.52%.

`C[C@H](NC(=O)c1ccc(NC(=O)Nc2ccccc2)cc1)[C@@H]1CCCO1`: the inhibition by setting is: (Concentration 49.75 uM, Number of replicates 2.0, Standard deviation 1.099 %) -4.28%; (Concentration 99.5 uM, Number of replicates 2.0, Standard deviation 2.587 %) -4.86%.

As for `Cc1nn(Cc2ccccc2)c(C)c1CNc1ncnc2[nH]ncc12`, the inhibition (Concentration 50.0 uM, Number of replicates 2.0, Standard deviation 2.858 %) was -1.75%.

In the case of `O=C(Nc1ccccc1)Nc1ccc(C(=O)NC2c3cccc(O)c3CC2C(=O)O)cc1` (configuration not stated), the inhibition (Concentration 50.0 uM, Number of replicates 2.0, Standard deviation 0.256 %) amounted to 99.9%.

As for `COc1cccc(NC(=O)c2ccc(NC(=O)Nc3ccccc3)cc2)n1`, the inhibition is, setting by setting: (Concentration 49.75 uM, Number of replicates 2.0, Standard deviation 3.541 %) 4.65%; (Concentration 99.5 uM, Number of replicates 2.0, Standard deviation 3.473 %) 5.37%.

Regarding `O=C(Nc1ccccc1)Nc1ccc(C(=O)N2CCc3nc[nH]c3C2)cc1`, the inhibition by setting is: (Concentration 49.75 uM, Number of replicates 2.0, Standard deviation 2.91 %) -3.02%; (Concentration 99.5 uM, Number of replicates 2.0, Standard deviation 5.124 %) -2.38%.

On to `CC(C)n1nccc1NC(=O)c1ccc(NC(=O)Nc2ccccc2)cc1`, for which the inhibition by setting is: (Concentration 49.75 uM, Number of replicates 2.0, Standard deviation 2.48 %) -2%; (Concentration 99.5 uM, Number of replicates 2.0, Standard deviation 1.778 %) -0.924%.

As to `O=C(Nc1ccccc1)Nc1ccc(C(=O)N2CCn3nccc3C2)cc1`, the inhibition runs as follows: (Concentration 49.75 uM, Number of replicates 2.0, Standard deviation 2.554 %) -3.11%; (Concentration 99.5 uM, Number of replicates 2.0, Standard deviation 2.469 %) 2.3%.

Take `O=C(Nc1ccccc1)Nc1ccc(C(=O)NCCc2cccnc2)cc1`: the inhibition is, setting by setting: (Concentration 49.75 uM, Number of replicates 2.0, Standard deviation 2.77 %) 1.27%; (Concentration 99.5 uM, Number of replicates 2.0, Standard deviation 0.373 %) 10.4%.

Take `Cc1[nH]c2ncnc(NC(=O)C3CCC(F)(F)CC3)c2c1C`: the inhibition (Concentration 50.0 uM, Number of replicates 2.0, Standard deviation 0.519 %) came out at 2.15%.

With `O=C(N[C@@H]1COCC[C@H]1O)c1cnn2ccc(C3CCN(C(=O)c4ccccc4)CC3)cc12`, the inhibition runs as follows: (Concentration 49.75 uM, Number of replicates 2.0, Standard deviation 1.335 %) -5.01%; (Concentration 99.5 uM, Number of replicates 2.0, Standard deviation 2.833 %) -4.48%.

As to `Oc1ccccc1CNc1ncnc2[nH]cnc12`, the inhibition (Concentration 50.0 uM, Number of replicates 2.0, Standard deviation 0.892 %) was 1.9%.

Turning to `CCO[C@@H]1C[C@@H](Nc2ncnc3[nH]ccc23)C12CCOCC2`, the inhibition (Concentration 50.0 uM, Number of replicates 2.0, Standard deviation 3.029 %) was found to be 2.32%.

With `CNC(=O)c1cccc(CNC(=O)c2ncnc3[nH]ccc23)c1`, the inhibition (Concentration 50.0 uM, Number of replicates 2.0, Standard deviation 1.029 %) was -5.91%.

As for `Cc1ncc(NCc2cnc3c(c2)NC(=O)CO3)cc1Cl`, the inhibition (Concentration 50.0 uM, Number of replicates 2.0, Standard deviation 2.461 %) was -0.368%.

In the case of `CCC[C@@](C)(NC(=O)c1ncnc2[nH]ccc12)C(=O)OC`, the inhibition (Concentration 50.0 uM, Number of replicates 2.0, Standard deviation 3.705 %) is -6.62%.

Turning to `Cc1cc(C(=O)N2CCC(c3ccn4ncc(C(=O)N5CCCCC5)c4c3)CC2)[nH]n1`, the inhibition (Concentration 49.75 uM, Number of replicates 2.0, Standard deviation 4.639 %) came out at 16.6% and the inhibition (Concentration 99.5 uM, Number of replicates 2.0, Standard deviation 3.947 %) is 31.6%.

In the case of `NS(=O)(=O)c1ccccc1CNc1ncnc2[nH]ccc12`, for the setting “Concentration 50.0 uM, Number of replicates 2.0, Standard deviation 10.219 %”, the inhibition is 3.66%.

With `O=C1CCC[C@@H](C(=O)N(CCC(=O)N2CCNCC2)Cc2cccc(Cl)c2)N1`, the inhibition (Concentration 49.75 uM, Number of replicates 2.0, Standard deviation 3.727 %) amounted to 2.42% and the inhibition (Concentration 99.5 uM, Number of replicates 2.0, Standard deviation 3.7 %) was -3.31%.

Consider `CC(C)[C@@H](Nc1ncnc2[nH]ccc12)c1cccs1`, for which the inhibition is, setting by setting: (Concentration 49.75 uM, Number of replicates 2.0, Standard deviation 1.872 %) 84.7%; (Concentration 99.5 uM, Number of replicates 2.0, Standard deviation 2.645 %) 89.9%.

As for `O=C(Nc1ccccc1)Nc1ccc(C(=O)N2CCc3ccncc32)cc1`, the inhibition is -4.3% (Concentration 49.75 uM, Number of replicates 2.0, Standard deviation 6.741 %) and 0.234% (Concentration 99.5 uM, Number of replicates 2.0, Standard deviation 1.961 %).

For `CC(C)[C@@H](Nc1ncnc2n[nH]cc12)c1cnn(C)c1`, the inhibition (Concentration 50.0 uM, Number of replicates 2.0, Standard deviation 1.634 %) was 63.5%.

`CC(C)[C@@H](Nc1ncnc2[nH]ccc12)c1nc2ccccc2[nH]1`: the inhibition is, setting by setting: (Concentration 49.75 uM, Number of replicates 2.0, Standard deviation 3.253 %) 37.3%; (Concentration 99.5 uM, Number of replicates 2.0, Standard deviation 1.702 %) 52.5%.

As to `c1nc(-c2nc(-c3cc(C4CC4)[nH]n3)no2)c2cc[nH]c2n1`, the inhibition (Concentration 50.0 uM, Number of replicates 2.0, Standard deviation 1.585 %) is -4.8%; the inhibition (Concentration 50.0 uM, Number of replicates 2.0, Standard deviation 2.643 %) was -2.81%; the inhibition (Concentration 100.0 uM, Number of replicates 2.0, Standard deviation […]) is -2.45%.

As for `Cc1noc(CCCNC(=O)c2ncnc3[nH]ccc23)n1`, for the setting “Concentration 50.0 uM, Number of replicates 2.0, Standard deviation 1.028 %”, the inhibition was -5.13%.

In the case of `O=C(c1ncc[nH]1)N1CCC(c2ccn3ncc(C(=O)N4CCCCC4)c3c2)CC1`, the inhibition is, setting by setting: (Concentration 49.75 uM, Number of replicates 2.0, Standard deviation 1.065 %) 18.5%; (Concentration 99.5 uM, Number of replicates 2.0, Standard deviation 3.121 %) 37.2%.

Turning to `O=S(=O)(NC[C@H]1CCOC1)c1cn2c(n1)CCCC2`, the inhibition (Concentration 50.0 uM, Number of replicates 2.0, Standard deviation 7.062 %) was -3.2%.

For the compound `O=C(N[C@@H]1CCCNC1=O)c1cnn2ccc(C3CCN(C(=O)c4ccccc4)CC3)cc12`, the inhibition was -3.16% (Concentration 49.75 uM, Number of replicates 2.0, Standard deviation 2.776 %) and -4.87% (Concentration 99.5 uM, Number of replicates 2.0, Standard deviation 2.396 %).

Consider `C#Cc1cccc(NC(=O)CN(C)c2ncnc3[nH]ccc23)c1`, for which, where the note is “Concentration 50.0 uM, Number of replicates 2.0, Standard deviation 4.462 %”, the inhibition came to 4.4%.

As for `Cc1[nH]c2ncnc(NC(=O)[C@@H]3CCO[C@@H]3C)c2c1C`, where the note is “Concentration 50.0 uM, Number of replicates 2.0, Standard deviation 0.696 %”, the inhibition came to 35.1%.

For `O=C(Nc1cnn(C2CCNCC2)c1)c1ncnc2[nH]ccc12`, the inhibition (Concentration 50.0 uM, Number of replicates 2.0, Standard deviation 5.148 %) is -1.9%.

On to `Cc1nc(Nc2cnn(CCO)c2)c2cc[nH]c2n1`, for which the inhibition (Concentration 50.0 uM, Number of replicates 2.0, Standard deviation 4.582 %) is -6.15%.

Turning to `O=C(c1c[nH]nn1)N1CCC(c2ccn3ncc(C(=O)N4CCCCC4)c3c2)CC1`, the inhibition is 14.7% (Concentration 49.75 uM, Number of replicates 2.0, Standard deviation 0.286 %) and 25.6% (Concentration 99.5 uM, Number of replicates 2.0, Standard deviation 4.61 %).

As to `O=C(NCc1nc(-c2ccco2)n[nH]1)c1cc(=O)n2ncnc2[nH]1`, the inhibition (Concentration 50.0 uM, Number of replicates 2.0, Standard deviation 1.646 %) was -2.6%.

Turning to `O=C(Nc1ccccc1)Nc1ccc(C(=O)NCc2ccnc(F)c2)cc1`, the inhibition is, setting by setting: (Concentration 49.75 uM, Number of replicates 2.0, Standard deviation 0.77 %) -0.36%; (Concentration 99.5 uM, Number of replicates 2.0, Standard deviation 1.377 %) 4.92%.

In the case of `O=C(Nc1nc2ccc(F)cc2[nH]1)c1cc(N2CCNC2=O)ccc1F`, the inhibition (Concentration 50.0 uM, Number of replicates 2.0, Standard deviation 3.412 %) is -7.71%.

As to `Cn1ncc2ncnc(NCc3ncccc3O)c21`, the inhibition (Concentration 50.0 uM, Number of replicates 2.0, Standard deviation 1.081 %) was -2.55%.

As to `CCN(Cc1cccnc1)C(=O)c1ccc(NC(=O)Nc2ccccc2)cc1`, the inhibition runs as follows: (Concentration 49.75 uM, Number of replicates 2.0, Standard deviation 4.414 %) 3.63%; (Concentration 99.5 uM, Number of replicates 2.0, Standard deviation 0.745 %) -7.09%.

Regarding `O=C(c1cc(O)ncn1)N1CCC(c2ccn3ncc(C(=O)N4CCCCC4)c3c2)CC1`, the inhibition came out at 19.1% (Concentration 49.75 uM, Number of replicates 2.0, Standard deviation 0.931 %) and 30.9% (Concentration 99.5 uM, Number of replicates 2.0, Standard deviation 1.95 %).

Take `CN(C(=O)c1cnn2ccc(C3CCN(C(=O)c4ccccc4)CC3)cc12)c1ccccc1O`: the inhibition by setting is: (Concentration 49.75 uM, Number of replicates 2.0, Standard deviation 2.649 %) 10%; (Concentration 99.5 uM, Number of replicates 2.0, Standard deviation 4.361 %) 15.9%.

With `O=C(N[C@@H](C(=O)O)[C@@H](O)Cc1ccccc1)c1ncnc2[nH]ccc12`, the inhibition is 3.79% (Concentration 49.75 uM, Number of replicates 2.0, Standard deviation 1.324 %) and 12.3% (Concentration 99.5 uM, Number of replicates 2.0, Standard deviation 4.676 %).

Turning to `COCc1cc(CC(=O)Nc2ncnc3[nH]cnc23)no1`, the inhibition (Concentration 50.0 uM, Number of replicates 2.0, Standard deviation 0.215 %) came out at 2.97%.

Take `Cc1nccc(C(=O)N2CCC(c3ccn4ncc(C(=O)N5CCCCC5)c4c3)CC2)n1`: the inhibition is 16.5% (Concentration 49.75 uM, Number of replicates 2.0, Standard deviation 2.531 %) and 27.4% (Concentration 99.5 uM, Number of replicates 2.0, Standard deviation 1.199 %).

Take `Cc1nc(C)c(CC(=O)Nc2cnc3[nH]ncc3c2)c(=O)[nH]1`: the inhibition (Concentration 50.0 uM, Number of replicates 2.0, Standard deviation 0.296 %) is 4.83%.

Usually inhibition stands for the drop in the measured response relative to a control, in per cent.
